Consider 6 molecules from US5137811A, “Method for diagnosing periodontal diseases with a substrate specific for aminopeptidase activity of periodontopathic bacteria” (Sunstar Kabushiki Kaisha, priority 1986, dated 1992).

Molecules are shown by their SMILES. Where a SMILES comes first, the peptide text is derived from it. The star is where a group is joined. βNA = c1ccc2cc(N*)ccc2c1; Cbz = O=C(OCc1ccccc1)*; Bz = O=C(c1ccccc1)*

The subject of one assay is B. melaninogenicus. Briefly: Hydrolytic activity of cell suspension on aminopeptidase substrates (Experiment 2). In kind it is cell-based. The note with it: two strains, Table 2. How it is done: (§1) The strains of Treponema were anaerobically cultivated using TYGVS media at 37° C. for 7 days, while other bacterial strains were cultivated using brain heart infusion broth at 37° C. for 48 to 72 hours. Each culture was diluted to obtain a bacterial cell suspension, the absorption at 660 nm of which was 1.0.
(§2) Substrate compounds for aminopeptidase enzyme having various color developing groups derived from β-naphthylamine were dissolved in 0.1M Tris-HCl buffer (pH 7.0) at the concentration of 0.2 mM to obtain substrate solutions.
(§3) To the substrate solution (1.5 ml) was added the above cell suspension (0.3 ml) and reacted at 37° C. for 60 minutes. After completion of the reaction, a coloring reagent [prepared by dissolving diazonium salt of Garnet GBC in 1M acetate buffer (containing 10% Tween 20, pH: 4.2) at the concentration of 0.5 mg/ml] was added and, after 15 minutes, the absorption at 525 nm was determined with a spectrophotometer.
(§4) On the basis of the average amount of released β-naphthylamine in each strain, the hydrolytic activity was expressed as follows: […]
(§5) According to the same manner as described in Experiment 1, periodontopathic bacteria specific aminopeptidase activity was tested by using four strains of Treponema denticola, five strains of B. gingivalis, three strains of B. intermedius, two strains of B. melaninogenicus, two strains of Actinomyces israelli, four strains of Actinobacillus actinomycetemcomitans and three strains of Fusobacterium nucleatum. Abbreviations used in Table 2 mean the following substrate compounds.

The next assay has as its system B. intermedius. The assay is described as above. In kind it is cell-based. The note with it: three strains, Table 2. The procedure: as §1, §2, §3, §4, §5
The subject of assay [1] is Treponema denticola. The description is as above. In kind it is cell-based. The note with it: four strains, Table 2. The procedure: as §1, §2, §3, §4, §5
Assay [2] relates to Fusobacterium nucleatum. Described as above. It is filed as cell-based. The note with it: three strains, Table 2. How it is done:
as §1, §2, §3, §4, §5

A further assay concerns B. corporis. The assay is described as above. In kind it is cell-based. As to conditions: Table 2. How it is done:
as §1, §2, §3, §4, §5

Another assay concerns B. denticola. Described as above. It is filed as cell-based. The note with it: Table 2. How it is done:
as §1, §2, §3, §4, §5

The subject of a further assay is B. gingivalis. Described as above. In kind it is cell-based. The note with it: five strains, Table 2. The procedure: as §1, §2, §3, §4, §5
The next assay has as its system Actinomyces israelli. The assay is described as above. It is filed as cell-based. The note with it: two strains, Table 2. The procedure:
as §1, §2, §3, §4, §5

Assay [3] deals with Actinobacillus actinomycetemcomitans. The assay is described as above. It is filed as cell-based. The note with it: four strains, Table 2. How it is done: as §1, §2, §3, §4, §5
The test system of assay [4] is periodontopathic bacteria specific aminopeptidase activity. Briefly: Hydrolytic activity of gingival crevicular fluid specimens, visually evaluated (Experiment 4). In kind it is biochemical. Set-up: key: -: orange; +: dark orange; ++: brown; +++: dark brown. The procedure:
as §2, §3
Specimens of gingival crevicular fluid were collected with paper points from five subjects who were considered to be healthy from their clinical state, six subjects with gingivitis and six subjects with periodontitis. Each specimen was dispersed in Ringer's solution (1.5 ml), and the relative amount of spirochete to total bacteria: [formula] was determined with a phase contrast microscope. Further, the Ringer's solution (0.3 ml) was tested for hydrolytic activity using the substrate solution prepared in the same manner as described in Experiment 1. As substrates, there were used compounds of the formula [1], i.e., N-benzoylvalyl-glycyl-arginine-β-naphthylamide (BzVGR) and N-carbobenzoxy-valyl-glycyl-arginine-β-naphthylamide (CxVGR) were used.
In table 4, hydrolytic activity was visually evaluated and expressed as follows: […]

Another assay has as its system Bacteroides gingivalis. The experiment in a line: Hydrolytic activity of oral anaerobe cell suspension on aminopeptidase substrates (Experiment 1). It is filed as cell-based. As to conditions: five strains, substrate 0.2 mM, pH 7.0, 37° C., 60 minutes, Table 1. How it is done:
(§6) Oral anaerobes, i.e., four strains of Treponema denticola, five strains of B. gingivalis, four strains of Actinobacillus actinomycetemcomitans, four strains of Capnocytophaga sp. and three strains of Fusobacterium nucleatum were tested for hydrolytic activity to the substrate of aminopeptidase enzyme as follows.
as §1, §2, §3, §4

The test system of a further assay is Capnocytophaga sp. The assay is described as above. It is filed as cell-based. The note with it: four strains, substrate 0.2 mM, pH 7.0, 37° C., 60 minutes, Table 1. How it is done:
as §6, §1, §2, §3, §4

The subject of assay [5] is Treponema denticola. The assay is described as above. In kind it is cell-based. The note with it: four strains, substrate 0.2 mM, pH 7.0, 37° C., 60 minutes, Table 1. The procedure:
as §6, §1, §2, §3, §4

Assay [6] relates to Fusobacterium nucleatum. Described as above. In kind it is cell-based. The note with it: three strains, substrate 0.2 mM, pH 7.0, 37° C., 60 minutes, Table 1. The procedure:
as §6, §1, §2, §3, §4

In assay [7] the test system is Actinobacillus actinomycetemcomitans. Described as above. It is filed as cell-based. The note with it: four strains, substrate 0.2 mM, pH 7.0, 37° C., 60 minutes, Table 1. How it is done: as §6, §1, §2, §3, §4

As for `O=C(CNC(=O)c1ccccc1)N[C@@H](Cc1ccccc1)C(=O)N1CCC[C@H]1C(=O)Nc1ccc2ccccc2c1` [BzGFP, N-benzoyl-glycyl-phenylalanyl-proline-β-naphthylamide] (Bz-Gly-Phe-Pro-βNA), the “hydrolytic activity (average amount of released β-naphthylamine)” value with B. melaninogenicus is given as “++ (20 ≤release amount<40 nmol/ml)”; with B. intermedius, “+++ (release amount≥40 nmol/ml)”; in the assay with Treponema denticola [1] it was “+++ (release amount≥40 nmol/ml)”; in the assay on Fusobacterium nucleatum [2], “- (release amount<5 nmol/ml)”; with B. corporis, “++ (20 ≤release amount<40 nmol/ml)”; in the assay on B. denticola, “++ (20 ≤release amount<40 nmol/ml)”. Moreover, the results for the “hydrolytic activity (average amount of released β-naphthylamine)” value (with B. gingivalis; in the assay with Actinomyces israelli; in assay [3]) were “++ (20 ≤release amount<40 nmol/ml)”, “- (release amount<5 nmol/ml)” and “- (release amount<5 nmol/ml)”, respectively.

Consider `O=C(NCC(=O)N1CCC[C@H]1C(=O)Nc1ccc2ccccc2c1)c1ccccc1` [BzGP, N-benzoyl-glycyl-proline-β-naphthylamide] (Bz-Gly-Pro-βNA), for which the “hydrolytic activity (average amount of released β-naphthylamine)” value with B. melaninogenicus was “++ (20 ≤release amount<40 nmol/ml)”; in the assay with B. intermedius, “+++ (release amount≥40 nmol/ml)”; in the assay on Treponema denticola [1] it was “++ (20 ≤release amount<40 nmol/ml)”; in the assay with Fusobacterium nucleatum [2], “- (release amount<5 nmol/ml)”; in the assay on B. corporis it was “++ (20 ≤release amount<40 nmol/ml)”; with B. denticola, “++ (20 ≤release amount<40 nmol/ml)”. Also, the “hydrolytic activity (average amount of released β-naphthylamine)” value is “++ (20 ≤release amount<40 nmol/ml)” in the assay with B. gingivalis, “- (release amount<5 nmol/ml)” in the assay on Actinomyces israelli and “- (release amount<5 nmol/ml)” in assay [3].

Consider `CC(C)[C@H](NC(=O)c1ccccc1)C(=O)NCC(=O)N[C@@H](CCCNC(=N)N)C(=O)Nc1ccc2ccccc2c1` [BzVGR, N-benzoyl-valyl-glycyl-arginine-β-naphthylamide] (Bz-Val-Gly-Arg-βNA), for which the “hydrolytic activity, visually evaluated” value in assay [4] (Gingivitis subject 1 (spirochete 7.3 %)) is “+”; in [4] (Gingivitis subject 2 (spirochete 16.7 %)) it was “+”; in [4] (Gingivitis subject 3 (spirochete 20.5 %)), “++”; in assay [4] (Gingivitis subject 4 (spirochete 6.8 %)) it was “-”; in assay [4] (Gingivitis subject 5 (spirochete 7.3 %)), “-”; in assay [4] (Gingivitis subject 6 (spirochete 14.4 %)), “+”. Also, the “hydrolytic activity, visually evaluated” value in [4] (Healthy subject 1 (spirochete 0.1 %)) is “-”; in assay [4] (Healthy subject 2 (spirochete 2.5 %)), “+”; in [4] (Healthy subject 3 (spirochete 1.1 %)), “-”; in [4] (Healthy subject 4 (spirochete 0.6 %)), “-”; in assay [4] (Healthy subject 5 (spirochete 1.3 %)), “-”; in assay [4] (Periodontitis subject 1 (spirochete 45.2 %)), “+++”. The “hydrolytic activity, visually evaluated” value in assay [4] (Periodontitis subject 2 (spirochete 30.3 %)), in assay [4] (Periodontitis subject 3 (spirochete 34.6 %)), in assay [4] (Periodontitis subject 4 (spirochete 21.2 %)), in [4] (Periodontitis subject 5 (spirochete 40.3 %)) and in assay [4] (Periodontitis subject 6 (spirochete 35.1 %)) was “+++” throughout. The “hydrolytic activity (average amount of released β-naphthylamine)” value in the assay on Bacteroides gingivalis is listed as “+++ (release amount≥40 nmol/ml)”; in the assay with Capnocytophaga sp. it was “- (release amount<5 nmol/ml)”; with Treponema denticola [5], “+++ (release amount≥40 nmol/ml)”; in the assay with Fusobacterium nucleatum [6], “- (release amount<5 nmol/ml)”; in assay [7] it was “- (release amount<5 nmol/ml)”.

As to `CC(C)[C@H](NC(=O)OCc1ccccc1)C(=O)N[C@@H](CCCCN)C(=O)N1CCC[C@H]1C(=O)Nc1ccc2ccccc2c1` [CxVKP, N-carbobenzoxy-valyl-lysyl-proline-β-naphthylamide] (Cbz-Val-Lys-Pro-βNA), the “hydrolytic activity (average amount of released β-naphthylamine)” value in the assay with B. melaninogenicus is “++ (20 ≤release amount<40 nmol/ml)”; in the assay on B. intermedius, “++ (20 ≤release amount<40 nmol/ml)”; in the assay with Treponema denticola [1], “++ (20 ≤release amount<40 nmol/ml)”; in the assay with Fusobacterium nucleatum [2], “- (release amount<5 nmol/ml)”; with B. corporis, “++ (20 ≤release amount<40 nmol/ml)”; in the assay on B. denticola, “++ (20 ≤release amount<40 nmol/ml)”. Moreover, the “hydrolytic activity (average amount of released β-naphthylamine)” value with B. gingivalis is on record as “++ (20 ≤release amount<40 nmol/ml)”; in the assay on Actinomyces israelli, “- (release amount<5 nmol/ml)”; in [3] it was “- (release amount<5 nmol/ml)”.

For `N[C@@H](Cc1ccccc1)C(=O)N1CCC[C@H]1C(=O)Nc1ccc2ccccc2c1` [FP, phenylalanyl-proline-β-naphthylamide] (H-Phe-Pro-βNA), the “hydrolytic activity (average amount of released β-naphthylamine)” value is on record as “+ (10 ≤release amount<20 nmol/ml)” with B. melaninogenicus; “+ (10 ≤release amount<20 nmol/ml)” with B. intermedius; “++ (20 ≤release amount<40 nmol/ml)” with Treponema denticola [1]; “- (release amount<5 nmol/ml)” in the assay with Fusobacterium nucleatum [2]; “+ (10 ≤release amount<20 nmol/ml)” in the assay on B. corporis; “+ (10 ≤release amount<20 nmol/ml)” with B. denticola. Moreover, the results for the “hydrolytic activity (average amount of released β-naphthylamine)” value (in the assay with B. gingivalis; with Actinomyces israelli; in [3]) were “++ (20 ≤release amount<40 nmol/ml)”, “- (release amount<5 nmol/ml)” and “- (release amount<5 nmol/ml)”, respectively.

On to `CC(C)C[C@H](N)C(=O)NCC(=O)Nc1ccc2ccccc2c1` [LG, leucyl-glycine-β-naphthylamide, reference compound] (H-Leu-Gly-βNA), for which the “hydrolytic activity (average amount of released β-naphthylamine)” value is “+++ (release amount≥40 nmol/ml)” in the assay with B. melaninogenicus; “- (release amount<5 nmol/ml)” in the assay with B. intermedius; “- (release amount<5 nmol/ml)” in the assay on Treponema denticola [1]; “- (release amount<5 nmol/ml)” in the assay with Fusobacterium nucleatum [2]; “++ (20 ≤release amount<40 nmol/ml)” in the assay with B. corporis; “++ (20 ≤release amount<40 nmol/ml)” in the assay on B. denticola. Moreover, the entries for the “hydrolytic activity (average amount of released β-naphthylamine)” value (with B. gingivalis; with Actinomyces israelli; in assay [3]) were “+ (10 ≤release amount<20 nmol/ml)”, “- (release amount<5 nmol/ml)” and “- (release amount<5 nmol/ml)”, respectively.
